Here are results for ten compounds from ChEMBL document CHEMBL5465560, “Selectivity Literature for EUbOPEN Chemogenomic Library” (2024).

SMILES strings stand for the structures.

Experiment [1] concerns the target Serine/threonine-protein kinase MARK2 (Homo sapiens) (UniProt Q7KZI7). Description: Selectivity interaction (Kinase panel (Z-LYTE Assay)) EUB0001632a MARK2. As to conditions: at 10 µM.
Experiment [2] deals with High affinity nerve growth factor receptor (Homo sapiens, UniProt P04629). Description: Selectivity interaction (Kinase panel (Z-LYTE Assay)) EUB0001632a NTRK1. The settings on record: at 10 µM.
For experiment [3], the target named is Insulin receptor (Homo sapiens, UniProt P06213). Kind of experiment: Selectivity interaction (KinomeScan (DiscoverX)) EUB0001619a INSR. The settings on record: at 1 µM.
In experiment [4] the test system is T1, Receptor-type tyrosine-protein kinase FLT3 (Homo sapiens), P36888 [D835Y].
T1 sequence (whole entry): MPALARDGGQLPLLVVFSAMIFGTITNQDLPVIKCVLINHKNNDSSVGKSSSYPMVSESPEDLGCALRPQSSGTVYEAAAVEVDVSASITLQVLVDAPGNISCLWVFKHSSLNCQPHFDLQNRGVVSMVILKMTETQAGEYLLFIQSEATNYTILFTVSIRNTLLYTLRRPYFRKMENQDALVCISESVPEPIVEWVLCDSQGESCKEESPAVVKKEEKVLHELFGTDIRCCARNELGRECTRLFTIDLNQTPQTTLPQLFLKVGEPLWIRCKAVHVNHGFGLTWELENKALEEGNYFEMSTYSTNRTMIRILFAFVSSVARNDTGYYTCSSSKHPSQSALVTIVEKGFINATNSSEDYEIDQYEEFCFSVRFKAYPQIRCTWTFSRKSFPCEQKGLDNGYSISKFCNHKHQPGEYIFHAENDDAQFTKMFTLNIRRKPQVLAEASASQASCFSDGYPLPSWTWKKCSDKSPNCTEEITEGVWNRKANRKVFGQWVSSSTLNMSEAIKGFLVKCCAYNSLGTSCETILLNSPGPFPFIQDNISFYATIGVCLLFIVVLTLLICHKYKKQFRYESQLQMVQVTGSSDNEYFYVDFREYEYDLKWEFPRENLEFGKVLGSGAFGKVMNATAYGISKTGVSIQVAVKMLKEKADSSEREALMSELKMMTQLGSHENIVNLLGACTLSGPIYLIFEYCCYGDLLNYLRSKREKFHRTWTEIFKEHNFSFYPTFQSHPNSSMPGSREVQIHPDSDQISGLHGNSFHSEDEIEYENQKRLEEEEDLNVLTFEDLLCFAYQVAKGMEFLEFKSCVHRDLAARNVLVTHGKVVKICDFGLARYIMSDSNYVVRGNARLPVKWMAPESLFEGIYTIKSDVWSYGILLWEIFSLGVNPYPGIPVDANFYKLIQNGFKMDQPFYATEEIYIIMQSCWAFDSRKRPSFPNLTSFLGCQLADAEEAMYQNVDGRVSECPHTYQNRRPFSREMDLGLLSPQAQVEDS
Description: Selectivity interaction (SelectScreen profiling (Invitrogen)) EUB0000607a FLT3. As to conditions: at 2 µM.

In experiment [5] the target is 5'-AMP-activated protein kinase catalytic subunit alpha-1 (Homo sapiens, UniProt Q13131). Kind of experiment: Selectivity interaction (ActivX KiNativ screen (kinase selectivity in THP-1 cell lysates)) EUB0000639a PRKAA1. It is filed as subcellular. As to conditions: lysate, at 0.04 µM.
The target in experiment [6] is Protein kinase C theta type (Homo sapiens, UniProt Q04759). Kind of experiment: Selectivity interaction (Kinase panel (Invitrogen)) EUB0000639a PRKCQ. As to conditions: at 200 nM.
Experiment [7] has as its target Serine/threonine-protein kinase 38-like (Homo sapiens) (UniProt Q9Y2H1). Description: Selectivity interaction (ActivX KiNativ screen (kinase selectivity in THP-1 cell lysates)) EUB0000639a STK38L. It is filed as subcellular. As to conditions: lysate, at 0.01 µM.
The target of experiment [8] is DNA (cytosine-5)-methyltransferase 3B (Homo sapiens) (UniProt Q9UBC3). The settings on record: at 1 µM.
Experiment [9] deals with T2, Peripheral plasma membrane protein CASK (Homo sapiens) (UniProt O14936).
T2 sequence (whole entry): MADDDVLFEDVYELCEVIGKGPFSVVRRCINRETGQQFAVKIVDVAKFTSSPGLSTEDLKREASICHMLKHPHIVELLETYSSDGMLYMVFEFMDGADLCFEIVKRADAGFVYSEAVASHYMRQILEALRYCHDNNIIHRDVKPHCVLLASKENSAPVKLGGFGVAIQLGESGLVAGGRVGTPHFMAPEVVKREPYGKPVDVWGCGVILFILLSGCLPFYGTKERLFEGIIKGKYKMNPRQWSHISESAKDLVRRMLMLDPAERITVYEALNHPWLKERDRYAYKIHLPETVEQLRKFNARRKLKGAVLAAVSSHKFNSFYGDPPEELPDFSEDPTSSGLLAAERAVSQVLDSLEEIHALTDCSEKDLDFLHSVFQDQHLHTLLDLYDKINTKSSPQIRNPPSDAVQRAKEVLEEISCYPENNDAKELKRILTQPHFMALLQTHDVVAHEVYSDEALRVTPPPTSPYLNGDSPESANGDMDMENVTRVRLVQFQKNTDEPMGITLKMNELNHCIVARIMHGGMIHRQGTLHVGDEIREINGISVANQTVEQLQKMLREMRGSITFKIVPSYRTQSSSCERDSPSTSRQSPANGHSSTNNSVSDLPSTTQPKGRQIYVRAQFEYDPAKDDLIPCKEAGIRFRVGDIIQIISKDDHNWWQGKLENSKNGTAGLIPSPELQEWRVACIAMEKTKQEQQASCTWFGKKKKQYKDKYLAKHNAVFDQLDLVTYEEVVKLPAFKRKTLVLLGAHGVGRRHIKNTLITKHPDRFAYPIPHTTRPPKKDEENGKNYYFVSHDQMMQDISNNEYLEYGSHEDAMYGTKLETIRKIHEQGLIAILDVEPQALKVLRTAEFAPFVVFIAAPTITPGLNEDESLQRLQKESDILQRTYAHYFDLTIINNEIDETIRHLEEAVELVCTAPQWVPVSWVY
Description: Selectivity interaction (KinomeScan (DiscoverX)) EUB0000045b CASK.

Experiment [10] has as its target Protein kinase C eta type (Homo sapiens) (UniProt P24723). Description: Selectivity interaction (KinomeScan (DiscoverX)) EUB0000045b PRKCH.
Experiment [11] addresses Phosphatidylinositol 4,5-bisphosphate 3-kinase catalytic subunit gamma isoform (Homo sapiens) (UniProt P48736). Description: Selectivity interaction (KinomeScan (DiscoverX)) EUB0000045b PIK3CG. As to conditions: at 1 µM.
In experiment [12] the target is Receptor-interacting serine/threonine-protein kinase 2 (Homo sapiens, UniProt O43353). Kind of experiment: Selectivity interaction (ProQinase) EUB0000171b RIPK2.
Experiment [13] addresses Macrophage colony-stimulating factor 1 receptor (Homo sapiens) (UniProt P07333). Description: Selectivity interaction (KinomeScan (DiscoverX)) EUB0001049a CSF1R. The settings on record: at 1 µM.
Experiment [14] addresses Bromodomain adjacent to zinc finger domain protein 1A (Homo sapiens) (UniProt Q9NRL2). Description: Selectivity interaction (Bromodomain panel (DSF asssay)) EUB0000270b BAZ1A.
Experiment [15] addresses Tyrosine-protein kinase CSK (Homo sapiens) (UniProt P41240). Kind of experiment: Selectivity interaction (Millipore kinase profiler) EUB0000124b CSK. The settings on record: at 10 µM.

Chain of Protein kinase C eta type (Homo sapiens) (P24723 whole entry, canonical isoform): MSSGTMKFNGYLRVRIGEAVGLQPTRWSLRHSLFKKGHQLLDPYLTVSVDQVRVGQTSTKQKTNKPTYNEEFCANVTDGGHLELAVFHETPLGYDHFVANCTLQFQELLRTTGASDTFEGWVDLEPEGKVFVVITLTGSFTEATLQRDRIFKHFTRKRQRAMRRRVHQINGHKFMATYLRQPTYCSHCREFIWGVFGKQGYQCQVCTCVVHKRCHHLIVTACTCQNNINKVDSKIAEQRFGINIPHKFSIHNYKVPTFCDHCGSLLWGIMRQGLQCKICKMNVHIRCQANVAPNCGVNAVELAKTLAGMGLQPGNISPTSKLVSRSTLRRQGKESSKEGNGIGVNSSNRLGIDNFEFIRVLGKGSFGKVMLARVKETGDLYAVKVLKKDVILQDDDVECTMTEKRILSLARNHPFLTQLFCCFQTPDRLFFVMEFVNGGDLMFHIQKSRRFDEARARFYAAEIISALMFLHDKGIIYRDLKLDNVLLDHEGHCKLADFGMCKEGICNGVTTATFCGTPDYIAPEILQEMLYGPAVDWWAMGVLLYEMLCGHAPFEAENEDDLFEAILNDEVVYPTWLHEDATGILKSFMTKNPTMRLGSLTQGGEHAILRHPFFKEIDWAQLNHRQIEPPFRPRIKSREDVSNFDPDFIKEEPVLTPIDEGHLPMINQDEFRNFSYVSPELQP
Chain of Receptor-interacting serine/threonine-protein kinase 2 (O43353 whole entry): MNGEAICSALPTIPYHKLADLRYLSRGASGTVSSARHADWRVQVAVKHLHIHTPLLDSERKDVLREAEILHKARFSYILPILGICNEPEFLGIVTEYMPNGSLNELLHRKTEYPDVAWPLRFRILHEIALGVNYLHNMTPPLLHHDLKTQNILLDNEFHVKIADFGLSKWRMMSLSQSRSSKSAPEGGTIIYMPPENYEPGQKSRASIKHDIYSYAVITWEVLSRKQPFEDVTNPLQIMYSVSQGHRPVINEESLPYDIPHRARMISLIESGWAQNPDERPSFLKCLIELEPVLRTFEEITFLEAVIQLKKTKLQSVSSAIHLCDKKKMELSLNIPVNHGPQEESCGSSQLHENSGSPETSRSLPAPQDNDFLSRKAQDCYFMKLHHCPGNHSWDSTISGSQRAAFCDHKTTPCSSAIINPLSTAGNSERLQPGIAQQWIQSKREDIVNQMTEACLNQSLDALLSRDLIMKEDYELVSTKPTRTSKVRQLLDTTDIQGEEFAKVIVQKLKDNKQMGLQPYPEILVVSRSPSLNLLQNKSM
Chain of Bromodomain adjacent to zinc finger domain protein 1A (Homo sapiens) (Q9NRL2 whole entry, the tested form may be a part): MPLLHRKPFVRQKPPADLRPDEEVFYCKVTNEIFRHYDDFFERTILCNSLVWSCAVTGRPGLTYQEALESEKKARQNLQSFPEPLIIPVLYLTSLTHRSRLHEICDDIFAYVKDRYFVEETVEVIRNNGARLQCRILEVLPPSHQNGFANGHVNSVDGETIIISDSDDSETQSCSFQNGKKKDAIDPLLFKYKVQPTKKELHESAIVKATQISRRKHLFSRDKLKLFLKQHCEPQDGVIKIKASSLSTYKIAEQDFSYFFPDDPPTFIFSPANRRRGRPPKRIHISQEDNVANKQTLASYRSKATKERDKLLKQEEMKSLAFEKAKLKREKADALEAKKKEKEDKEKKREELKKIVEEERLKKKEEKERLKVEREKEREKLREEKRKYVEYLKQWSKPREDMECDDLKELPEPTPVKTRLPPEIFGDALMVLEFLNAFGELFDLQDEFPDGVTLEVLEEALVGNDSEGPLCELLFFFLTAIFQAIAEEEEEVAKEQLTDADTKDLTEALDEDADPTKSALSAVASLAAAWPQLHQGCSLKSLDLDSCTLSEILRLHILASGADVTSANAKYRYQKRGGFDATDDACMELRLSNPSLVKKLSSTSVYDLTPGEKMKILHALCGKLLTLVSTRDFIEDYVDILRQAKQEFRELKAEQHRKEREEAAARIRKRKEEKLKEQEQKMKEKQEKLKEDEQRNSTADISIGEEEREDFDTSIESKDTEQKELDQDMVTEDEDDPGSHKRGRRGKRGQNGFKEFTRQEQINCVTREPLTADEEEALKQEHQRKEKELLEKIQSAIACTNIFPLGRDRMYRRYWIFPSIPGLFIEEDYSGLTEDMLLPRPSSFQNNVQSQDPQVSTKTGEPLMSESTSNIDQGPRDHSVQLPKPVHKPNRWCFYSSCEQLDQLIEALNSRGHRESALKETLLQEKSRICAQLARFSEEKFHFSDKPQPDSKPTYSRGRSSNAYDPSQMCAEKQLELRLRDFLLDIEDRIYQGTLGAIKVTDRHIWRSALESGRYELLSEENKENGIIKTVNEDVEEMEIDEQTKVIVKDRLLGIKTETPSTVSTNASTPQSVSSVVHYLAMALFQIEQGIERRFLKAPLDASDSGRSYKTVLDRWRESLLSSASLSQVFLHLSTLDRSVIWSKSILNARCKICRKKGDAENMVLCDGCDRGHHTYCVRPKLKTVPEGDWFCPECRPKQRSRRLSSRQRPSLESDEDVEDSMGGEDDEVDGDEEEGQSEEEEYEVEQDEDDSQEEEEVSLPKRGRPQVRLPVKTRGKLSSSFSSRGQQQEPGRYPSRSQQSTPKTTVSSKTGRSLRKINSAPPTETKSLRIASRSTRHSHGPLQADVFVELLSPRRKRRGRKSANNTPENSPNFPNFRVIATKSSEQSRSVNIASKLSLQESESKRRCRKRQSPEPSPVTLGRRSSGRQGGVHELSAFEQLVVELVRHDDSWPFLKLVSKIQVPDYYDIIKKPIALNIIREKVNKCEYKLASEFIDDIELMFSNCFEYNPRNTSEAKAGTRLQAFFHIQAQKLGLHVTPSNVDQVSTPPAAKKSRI
Chain of High affinity nerve growth factor receptor (P04629 33-796 limits assumed): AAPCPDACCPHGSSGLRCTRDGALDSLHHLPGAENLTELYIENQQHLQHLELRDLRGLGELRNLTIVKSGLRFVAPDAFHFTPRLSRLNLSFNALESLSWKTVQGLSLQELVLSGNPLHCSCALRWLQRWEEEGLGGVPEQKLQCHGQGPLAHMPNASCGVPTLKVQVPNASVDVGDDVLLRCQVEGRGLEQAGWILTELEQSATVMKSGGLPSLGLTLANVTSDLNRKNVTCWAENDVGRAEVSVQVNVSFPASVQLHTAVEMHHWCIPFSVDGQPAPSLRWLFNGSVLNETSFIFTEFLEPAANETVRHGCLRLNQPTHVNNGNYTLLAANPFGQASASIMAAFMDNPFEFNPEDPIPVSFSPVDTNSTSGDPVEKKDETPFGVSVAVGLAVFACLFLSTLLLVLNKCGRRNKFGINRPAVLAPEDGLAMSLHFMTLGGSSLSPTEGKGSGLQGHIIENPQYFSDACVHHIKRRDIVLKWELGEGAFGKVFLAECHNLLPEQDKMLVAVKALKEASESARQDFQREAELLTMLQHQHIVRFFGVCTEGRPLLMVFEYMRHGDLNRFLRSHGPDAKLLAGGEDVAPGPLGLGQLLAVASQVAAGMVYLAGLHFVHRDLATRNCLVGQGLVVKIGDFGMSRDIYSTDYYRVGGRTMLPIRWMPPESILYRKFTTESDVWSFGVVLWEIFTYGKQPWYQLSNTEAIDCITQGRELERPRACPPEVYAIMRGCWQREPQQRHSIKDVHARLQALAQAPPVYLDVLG
Chain of 5'-AMP-activated protein kinase catalytic subunit alpha-1 (Q13131 whole entry, looked up): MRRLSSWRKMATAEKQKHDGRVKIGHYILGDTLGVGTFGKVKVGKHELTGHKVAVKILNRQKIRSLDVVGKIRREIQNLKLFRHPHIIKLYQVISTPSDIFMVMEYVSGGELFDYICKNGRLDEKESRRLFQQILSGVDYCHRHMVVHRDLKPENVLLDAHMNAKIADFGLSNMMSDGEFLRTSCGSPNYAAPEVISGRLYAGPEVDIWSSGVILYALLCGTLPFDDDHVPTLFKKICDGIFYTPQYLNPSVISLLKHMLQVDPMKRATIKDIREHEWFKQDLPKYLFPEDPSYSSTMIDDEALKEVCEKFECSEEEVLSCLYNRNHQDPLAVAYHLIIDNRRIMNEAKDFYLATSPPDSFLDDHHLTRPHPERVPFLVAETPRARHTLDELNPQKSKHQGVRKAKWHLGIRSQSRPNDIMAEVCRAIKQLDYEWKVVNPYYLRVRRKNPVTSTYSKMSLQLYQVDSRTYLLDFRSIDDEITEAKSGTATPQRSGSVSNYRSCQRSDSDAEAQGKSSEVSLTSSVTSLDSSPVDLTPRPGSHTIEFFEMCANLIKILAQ
Chain of Protein kinase C theta type (Q04759 whole entry, looked up): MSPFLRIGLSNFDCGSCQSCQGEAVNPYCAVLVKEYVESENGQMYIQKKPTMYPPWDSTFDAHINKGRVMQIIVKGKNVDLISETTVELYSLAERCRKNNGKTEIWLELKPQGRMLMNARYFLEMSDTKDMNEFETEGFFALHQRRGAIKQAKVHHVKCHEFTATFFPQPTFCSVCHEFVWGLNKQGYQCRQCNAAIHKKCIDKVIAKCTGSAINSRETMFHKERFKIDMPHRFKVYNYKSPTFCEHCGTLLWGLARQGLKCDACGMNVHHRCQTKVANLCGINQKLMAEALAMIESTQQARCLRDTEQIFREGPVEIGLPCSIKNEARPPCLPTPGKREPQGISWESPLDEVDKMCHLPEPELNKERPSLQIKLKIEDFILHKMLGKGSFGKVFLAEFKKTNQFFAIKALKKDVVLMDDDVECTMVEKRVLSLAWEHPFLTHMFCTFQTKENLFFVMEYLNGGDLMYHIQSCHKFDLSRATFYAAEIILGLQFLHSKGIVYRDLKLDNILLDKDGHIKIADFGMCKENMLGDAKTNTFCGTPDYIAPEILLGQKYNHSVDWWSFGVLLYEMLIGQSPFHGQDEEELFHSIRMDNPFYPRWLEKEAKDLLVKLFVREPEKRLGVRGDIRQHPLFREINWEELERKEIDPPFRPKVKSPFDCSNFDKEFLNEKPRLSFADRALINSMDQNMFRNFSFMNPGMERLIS

Turning to `Cn1cc(-n2cnc3c(NCc4nc5cc(Cl)c(Cl)cc5[nH]4)nc(N4CCOCC4)nc32)cn1`, the results for the % of control in experiment [1] and in experiment [2] were 5.56% and -5.4%, respectively.

On to `N#Cc1cccc(-c2c[nH]c3ncnc(N4CCOCC4)c23)c1`, for which, in experiment [3], the % of control came to 100%.

Regarding `CNC(=O)Nc1ccc(-c2nc(N3CC4CCC(C3)O4)c3cnn(C4CCC5(CC4)OCCO5)c3n2)cc1`, the % of inhibition in experiment [4] was determined as 7%.

As for `CC[C@@H]1[C@H](F)C(=O)N[C@@H]1COc1nccc2cc(C(N)=O)c(OC)cc12` [ZIMLOVISERTIB], the % of inhibition in experiment [5] is 4.2%; in experiment [6] it was 3.66%; in experiment [7], 2.6%.

With `CNCCN1CCC(c2cc(CN(C)C(=O)c3cccc(Oc4ccccc4)c3)ccn2)CC1`, in [8], the % activity is greater than 85%.

Regarding `C=CC(=O)Nc1cc(-n2c(=O)ccc3cnc4ccc(-c5ccc(NS(C)(=O)=O)cc5)cc4c32)ccc1C`, the % of control in [9] (at 1 µM) was 61%; in [9] (at 10 µM) it was 100%; in [10] (at 1 µM), 98%; in experiment [10] (at 10 µM) it was 100%; in [11], 2.8%.

For `C=CC(=O)Nc1cccc(C(=O)Nc2ccc(Nc3cc(-c4[nH]c(SC)nc4C)ccn3)cc2)c1`, the % of control in [12] (at 1 µM) was 77%; in experiment [12] (at 5 µM) it was 43%.

Regarding `COc1cc(Nc2nc(C)cc(-c3cnn4nc(OC)ccc34)n2)cc(C(F)(F)F)c1`, the % of control in experiment [13] was found to be 100%.

`Cc1cc(CN)cc(C)c1-c1ncn(C)c1-c1cncn1C` had a dTM in experiment [14] of -1.36 K.

For `CC(=O)Nc1cccc(-n2c(=O)n(C3CC3)c(=O)c3c(Nc4ccc(I)cc4F)n(C)c(=O)c(C)c32)c1`, the % of control in experiment [15] worked out at 97%.
